“And” between values parts separate entries of the source, which are not always exact repeats. Equal entries are not always repeated.
Test system: human A549 epithelial cells
Experiment: Resgen Human cDNA arrays (PRHU03-S3) of A549 cells treated with peptide (Tables 21-26)
Conditions: 50 μg/ml, 4 h

CC[C@H](C)[C@H](N)C(=O)N[C@@H](CC(C)C)C(=O)N1CCC[C@H]1C(=O)N[C@@H](Cc1c[nH]c2ccccc12)C(=O)N[C@@H](CCCCN)C(=O)N[C@@H](Cc1c[nH]c2ccccc12)C(=O)N1CCC[C@H]1C(=O)N[C@@H](Cc1c[nH]c2ccccc12)C(=O)N[C@@H](Cc1c[nH]c2ccccc12)C(=O)N1CCC[C@H]1C(=O)N[C@@H](Cc1c[nH]c2ccccc12)C(=O)N[C@@H](CCCNC(=N)N)C(=O)N[C@@H](CCCNC(=N)N)C(N)=O [SEQ ID NO: 2]
Ratio Peptide:Unstimulated, catenin (cadherin-associated protein), delta 1 (AA025276): 1.2 | Ratio Peptide:Unstimulated, integrin, beta 3 (AA037229): 2.7 | Ratio Peptide:Unstimulated, Epstein-Barr virus induced polynucleotide 2 (AA037376): 1.6 | Ratio Peptide:Unstimulated, disintegrin and metalloproteinase domain 10 (AA043347): 1.5 | Ratio Peptide:Unstimulated, MAP kinase kinase kinase kinase 3 (AA043537): 0.45 | Ratio Peptide:Unstimulated, protein tyrosine phosphatase, receptor type, J (AA045326): 3.6 | Ratio Peptide:Unstimulated, MAP kinase kinase kinase 12 (AA053674): 0.20 | Ratio Peptide:Unstimulated, integrin, alpha 7 (AA055979): 0.57 | Ratio Peptide:Unstimulated, leukocyte immunoglobulin-like receptor, subfamily B (with TM and ITIM domains), member 4 (AA076350): 0.75 | Ratio Peptide:Unstimulated, phospholipase A2 receptor 1 (AA086038): 2.8 | Ratio Peptide:Unstimulated, IL-8 (AA102526): 3.6 | Ratio Peptide:Unstimulated, cadherin 11, type 2, OB-cadherin (osteoblast) (AA136983): 0.23 | Ratio Peptide:Unstimulated, TNF R superfamily, member 1B (AA150416, listed as ID 2): 18 and 17.09 | Ratio Peptide:Unstimulated, MAP kinase 9 (AA157286): 0.57 | Ratio Peptide:Unstimulated, macrophage stimulating 1 R (AA173454): 1.7 | Ratio Peptide:Unstimulated, killer cell lectin-like receptor subfamily C, member 2 (AA190627): 9.7 | Ratio Peptide:Unstimulated, TNF R superfamily, member 11b (AA194983, listed as ID 2): 5.3 and 5.29 | Ratio Peptide:Unstimulated, disintegrin and metalloproteinase domain 8 (AA279188): 3.1 | Ratio Peptide:Unstimulated, BCL2-interacting killer (apoptosis-inducing) (AA291323): 1.9 | Ratio Peptide:Unstimulated, disintegrin-like and metalloprotease with thrombosondin type 1 motif, 3 (AA398492): 0.32 | Ratio Peptide:Unstimulated, MAP kinase kinase kinase 4 (AA402447): 0.37 | Ratio Peptide:Unstimulated, prostaglandin E receptor 3 (subtype EP3) (AA406362): 4.1 | Ratio Peptide:Unstimulated, MAP kinase kinase kinase kinase 4 (AA417711): 0.96 | Ratio Peptide:Unstimulated, MAP kinase 8 interacting protein 2 (AA418293): 0.07 | Ratio Peptide:Unstimulated, integrin, alpha 3 (antigen CD49C, alpha 3 subunit of VLA-3 receptor) (AA424695): 0.8 | Ratio Peptide:Unstimulated, cadherin 3, type 1, P-cadherin (placental) (AA425217): 0.43 | Ratio Peptide:Unstimulated, integrin, alpha E (AA425451): 180 | Ratio Peptide:Unstimulated, formyl peptide receptor 1 (AA425767): 3.1 | Ratio Peptide:Unstimulated, MAP kinase kinase 2 (AA425826): 1.20 | Ratio Peptide:Unstimulated, cytokine inducible SH2-containing protein (AA427521): 33 | Ratio Peptide:Unstimulated, integrin, beta 5 (AA434397): 0.32 | Ratio Peptide:Unstimulated, protein tyrosine phosphatase, non-receptor type 9 (AA434420): 3.5 | Ratio Peptide:Unstimulated, protein tyrosine phosphatase, non-receptor type 12 (AA446259): 2.3 | Ratio Peptide:Unstimulated, caspase 8, apoptosis-related cysteine protease (AA448468): 2.2 | Ratio Peptide:Unstimulated, growth factor receptor-bound protein 2 (AA449831): 2.2 | Ratio Peptide:Unstimulated, endothelin receptor type A (AA450009): 12 | Ratio Peptide:Unstimulated, integrin, alpha 1 (AA450324): 0.41 | Ratio Peptide:Unstimulated, Human proteinase activated R-2 (AA454652): 6.1 | Ratio Peptide:Unstimulated, IL-11 R alpha (AA454657): 2.4 | Ratio Peptide:Unstimulated, CSF 3 R (AA458507): 1.9 | Ratio Peptide:Unstimulated, integrin, alpha 10 (AA460959): 0.33 | Ratio Peptide:Unstimulated, MAP kinase kinase kinase 7 (AA460969): 0.97 | Ratio Peptide:Unstimulated, NK cell R (AA463248): 2.5 | Ratio Peptide:Unstimulated, integrin, alpha 2 (CD49B, alpha 2 subunit of VLA-2 receptor) (AA463257): 0.9 | Ratio Peptide:Unstimulated, IL-1 receptor, type I (AA464526): 0.34 | Ratio Peptide:Unstimulated, protein tyrosine phosphatase, receptor type, E (AA464542): 0.23 | Ratio Peptide:Unstimulated, protein tyrosine phosphatase, receptor type, N polypeptide 2 (AA464590): 0.02 | Ratio Peptide:Unstimulated, protein tyrosine phosphatase, receptor-type, Z polypeptide 1 (AA476461): 0.63 | Ratio Peptide:Unstimulated, intercellular adhesion molecule 3 (AA479188): 0.12 | Ratio Peptide:Unstimulated, protein tyrosine phosphatase, receptor type, C-associated protein (AA481547): 5.1 | Ratio Peptide:Unstimulated, IL-18 receptor 1 (AA482489): 0.50 | Ratio Peptide:Unstimulated, vitamin D R (AA485226): 2.5 | Ratio Peptide:Unstimulated, integrin, beta 4 (AA485668): 0.8 | Ratio Peptide:Unstimulated, IL-10 R beta (AA486393, listed as ID 2): 2.5 and 2.51 | Ratio Peptide:Unstimulated, calcium and integrin binding protein (AA487575): 2.8 | Ratio Peptide:Unstimulated, TRAF and TNF receptor-associated protein (AA488650): 0.75 | Ratio Peptide:Unstimulated, cytokine-inducible kinase (AA489234): 0.41 | Ratio Peptide:Unstimulated, small inducible cytokine subfamily A (Cys—Cys), member 18 (AA495985): 0.32 | Ratio Peptide:Unstimulated, programmed cell death 8 (apoptosis-inducing factor) (AA496348): 1.07 | Ratio Peptide:Unstimulated, melanoma adhesion molecule (AA497002): 7.9 | Ratio Peptide:Unstimulated, TNF receptor-associated factor 3 (AA504259): 0.15 | Ratio Peptide:Unstimulated, apoptosis-related protein PNAS-1 (AA521316): 2.2 | Ratio Peptide:Unstimulated, complement component receptor 2 (AA521362): 26 | Ratio Peptide:Unstimulated, laminin R 1 (67 kD, ribosomal protein SA) (AA629897): 0.4 | Ratio Peptide:Unstimulated, protein tyrosine phosphatase, receptor type, U (AA644448): 6.1 | Ratio Peptide:Unstimulated, integrin, beta 3 (AA666269): 2.6 | Ratio Peptide:Unstimulated, regulator of G-protein signaling 5 (AA668470): 0.27 | Ratio Peptide:Unstimulated, T cell R delta locus (AA670107): 2.7 | Ratio Peptide:Unstimulated, small inducible cytokine A3 (homologous to mouse Mip-1a) (AA677522): 1.79 | Ratio Peptide:Unstimulated, protein tyrosine phosphatase, non-receptor type 13 (AA679180): 1.7 | Ratio Peptide:Unstimulated, protein tyrosine phosphatase, non-receptor type 3 (AA682684): 1.0 | Ratio Peptide:Unstimulated, v-SNARE R (AA704511): 11 | Ratio Peptide:Unstimulated, adenosine A3 R (AA863086): 2.0 | Ratio Peptide:Unstimulated, integrin, alpha 9 (AA865557): 0.86 | Ratio Peptide:Unstimulated, small inducible cytokine subfamily B (Cys-X-Cys), member 10 (AA878880): 0.50 | Ratio Peptide:Unstimulated, interleukin enhancer binding factor 2 (AA894687): 1.3 | Ratio Peptide:Unstimulated, IL-2 receptor, alpha (AA903183): 0.41 | Ratio Peptide:Unstimulated, small inducible cytokine subfamily A (Cys—Cys), member 23 (AA916836): 0.38 | Ratio Peptide:Unstimulated, CD2 (AA927710, listed as ID 2): 2.6 and 2.62 | Ratio Peptide:Unstimulated, prostaglandin E receptor 1 (subtype EP1) (AA972293): 7.2 | Ratio Peptide:Unstimulated, IL-12 receptor, beta 2 (AA977194): 0.67 | Ratio Peptide:Unstimulated, protein tyrosine phosphatase, non-receptor type 11 (AA995560): 2.9 | Ratio Peptide:Unstimulated, integrin beta 4 binding protein (AI017019): 1.7 | Ratio Peptide:Unstimulated, VIP R 2 (AI057229): 3.1 | Ratio Peptide:Unstimulated, orphan seven-transmembrane receptor, chemokine related (AI131555): 1.06 | Ratio Peptide:Unstimulated, IL-1 R antagonist homolog 1 (AI167887, listed as ID 2): 3086 and 3085.96 | Ratio Peptide:Unstimulated, MAP kinase 8 interacting protein 2 (AI202738): 0.16 | Ratio Peptide:Unstimulated, disintegrin and metalloproteinase domain 18 (AI205675): 0.40 | Ratio Peptide:Unstimulated, regulator of G-protein signaling 20 (AI264190): 48

— patent US20070134261A1, “Effectors of innate immunity” (priority 2001, published 2007)
